Read-outs that look alike come from different tables or passages of the source.
How the values were obtained:
[1] = Metabolic stability in mouse liver microsomes; type: in vitro ADME; conditions: 1 μM test item, 60 minutes, NADPH
Method: (§1) Metabolic stability studies were conducted using mouse, rat, and human liver microsomes. The protocol for the studies with mouse, rat, and human liver microsomes (all from BD Gentest, USA) is provided below. In brief, 0.4 mg protein was preincubated with 2 mM NADPH (cofactor) in phosphate buffer (pH˜7.4) for 15 min at 37° C. and then added with 1 μM test item and incubated further for 60 minutes in triplicate. The reaction mixture was terminated with methanol containing an internal standard and centrifuged further to analyze the test item remaining in the supernatant by LC-MS/MS. The percent parent compound remaining was calculated in comparison with similar samples terminated at 0 minutes.

[2] = Metabolic stability in rat liver microsomes; type: in vitro ADME; conditions: 1 μM test item, 60 minutes, NADPH
Method: as §1

[3] = Metabolic stability in human liver microsomes; type: in vitro ADME; conditions: 1 μM test item, 60 minutes, NADPH
Method: as §1

[4] = biological target: PI3K delta (Homo sapiens (Human), UniProt O00329); test: Assay 1: Fluorescent (HTRF) determination of PI3K enzyme activity, delta; type: biochemical
Sequence of PI3K delta (O00329 whole entry, canonical isoform): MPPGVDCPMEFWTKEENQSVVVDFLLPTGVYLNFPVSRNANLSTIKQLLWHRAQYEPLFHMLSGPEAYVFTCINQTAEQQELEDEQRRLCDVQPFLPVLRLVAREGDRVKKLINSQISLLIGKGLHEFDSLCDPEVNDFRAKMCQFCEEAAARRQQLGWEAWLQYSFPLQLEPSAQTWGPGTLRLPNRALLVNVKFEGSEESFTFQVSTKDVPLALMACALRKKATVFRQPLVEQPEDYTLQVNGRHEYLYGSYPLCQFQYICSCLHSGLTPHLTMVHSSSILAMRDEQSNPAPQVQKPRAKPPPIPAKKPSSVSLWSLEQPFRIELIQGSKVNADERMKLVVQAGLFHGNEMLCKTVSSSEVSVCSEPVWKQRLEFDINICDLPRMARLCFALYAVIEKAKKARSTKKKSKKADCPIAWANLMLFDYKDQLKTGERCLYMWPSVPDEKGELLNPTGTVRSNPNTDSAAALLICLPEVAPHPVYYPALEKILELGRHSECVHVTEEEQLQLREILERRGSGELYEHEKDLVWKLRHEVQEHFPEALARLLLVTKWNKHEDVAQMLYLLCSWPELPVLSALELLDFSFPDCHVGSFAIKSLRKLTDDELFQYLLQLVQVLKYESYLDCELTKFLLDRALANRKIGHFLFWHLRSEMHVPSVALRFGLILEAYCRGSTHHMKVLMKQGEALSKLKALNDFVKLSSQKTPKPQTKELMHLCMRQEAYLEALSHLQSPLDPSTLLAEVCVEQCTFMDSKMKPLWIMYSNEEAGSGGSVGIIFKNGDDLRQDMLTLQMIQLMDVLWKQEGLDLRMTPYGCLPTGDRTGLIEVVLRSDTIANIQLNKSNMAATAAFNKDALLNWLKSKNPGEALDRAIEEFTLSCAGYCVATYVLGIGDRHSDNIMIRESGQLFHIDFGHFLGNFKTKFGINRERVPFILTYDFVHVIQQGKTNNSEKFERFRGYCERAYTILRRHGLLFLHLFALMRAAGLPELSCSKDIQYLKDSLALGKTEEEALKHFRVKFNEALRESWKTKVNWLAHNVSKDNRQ
Sequence of PI3K delta (P27986 whole entry partner, canonical isoform): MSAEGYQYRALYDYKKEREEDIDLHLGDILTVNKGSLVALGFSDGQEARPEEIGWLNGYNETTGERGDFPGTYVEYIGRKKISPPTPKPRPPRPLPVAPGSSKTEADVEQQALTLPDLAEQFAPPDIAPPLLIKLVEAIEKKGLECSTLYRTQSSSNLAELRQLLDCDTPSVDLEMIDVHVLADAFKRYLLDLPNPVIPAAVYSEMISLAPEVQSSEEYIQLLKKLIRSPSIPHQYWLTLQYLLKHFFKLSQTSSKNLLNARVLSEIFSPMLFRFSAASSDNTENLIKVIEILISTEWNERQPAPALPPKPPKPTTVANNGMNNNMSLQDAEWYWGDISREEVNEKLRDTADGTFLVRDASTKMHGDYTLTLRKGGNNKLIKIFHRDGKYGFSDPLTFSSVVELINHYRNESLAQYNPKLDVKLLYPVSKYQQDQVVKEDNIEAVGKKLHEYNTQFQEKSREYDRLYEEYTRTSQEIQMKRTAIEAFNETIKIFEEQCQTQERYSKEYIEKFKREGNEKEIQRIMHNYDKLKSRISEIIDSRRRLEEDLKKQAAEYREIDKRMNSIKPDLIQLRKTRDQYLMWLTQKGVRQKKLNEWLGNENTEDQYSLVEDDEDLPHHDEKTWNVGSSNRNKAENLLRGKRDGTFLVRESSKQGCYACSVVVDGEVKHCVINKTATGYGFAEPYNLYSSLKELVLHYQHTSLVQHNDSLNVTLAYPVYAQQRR
Method: (§2) The homogenous time resolved fluorescence (HTRF) assay allows detection of 3,4,5-triphosphate (PIP3) formed as a result of phosphorylation of phosphotidylinositol 4,5-biphosphate (PIP2) by PI3K isoforms such as α, β, γ or δ.
(§3) PI3K isoform activity for α, β, γ or δ was determined using a PI3K human HTRF™ Assay Kit (Millipore, Billerica, Mass.) with modifications. All incubations were carried out at room temperature. […] After the initial incubation, 5 μl/well of 400 μM ATP was added and incubated for an additional 30 minutes. Reaction was terminated by adding 5 μl/well stop solution (Millipore, Billerica, Mass.). Five microliters of detection mix (Millipore, Billerica, Mass.) were then added to each well and was incubated for 6-18 h in the dark. HRTF ratio was measured on a microplate reader (BMG Labtech., Germany) at an excitation wavelength of 337 nm and emission wavelengths of 665 and 620 nm with an integration time of 400 μsec.

[5] = biological target: PI3K α (Homo sapiens (Human), UniProt P42336); test: Assay 1: Fluorescent (HTRF) determination of PI3K enzyme activity, alpha; type: biochemical
Sequence of PI3K α (P42336 whole entry): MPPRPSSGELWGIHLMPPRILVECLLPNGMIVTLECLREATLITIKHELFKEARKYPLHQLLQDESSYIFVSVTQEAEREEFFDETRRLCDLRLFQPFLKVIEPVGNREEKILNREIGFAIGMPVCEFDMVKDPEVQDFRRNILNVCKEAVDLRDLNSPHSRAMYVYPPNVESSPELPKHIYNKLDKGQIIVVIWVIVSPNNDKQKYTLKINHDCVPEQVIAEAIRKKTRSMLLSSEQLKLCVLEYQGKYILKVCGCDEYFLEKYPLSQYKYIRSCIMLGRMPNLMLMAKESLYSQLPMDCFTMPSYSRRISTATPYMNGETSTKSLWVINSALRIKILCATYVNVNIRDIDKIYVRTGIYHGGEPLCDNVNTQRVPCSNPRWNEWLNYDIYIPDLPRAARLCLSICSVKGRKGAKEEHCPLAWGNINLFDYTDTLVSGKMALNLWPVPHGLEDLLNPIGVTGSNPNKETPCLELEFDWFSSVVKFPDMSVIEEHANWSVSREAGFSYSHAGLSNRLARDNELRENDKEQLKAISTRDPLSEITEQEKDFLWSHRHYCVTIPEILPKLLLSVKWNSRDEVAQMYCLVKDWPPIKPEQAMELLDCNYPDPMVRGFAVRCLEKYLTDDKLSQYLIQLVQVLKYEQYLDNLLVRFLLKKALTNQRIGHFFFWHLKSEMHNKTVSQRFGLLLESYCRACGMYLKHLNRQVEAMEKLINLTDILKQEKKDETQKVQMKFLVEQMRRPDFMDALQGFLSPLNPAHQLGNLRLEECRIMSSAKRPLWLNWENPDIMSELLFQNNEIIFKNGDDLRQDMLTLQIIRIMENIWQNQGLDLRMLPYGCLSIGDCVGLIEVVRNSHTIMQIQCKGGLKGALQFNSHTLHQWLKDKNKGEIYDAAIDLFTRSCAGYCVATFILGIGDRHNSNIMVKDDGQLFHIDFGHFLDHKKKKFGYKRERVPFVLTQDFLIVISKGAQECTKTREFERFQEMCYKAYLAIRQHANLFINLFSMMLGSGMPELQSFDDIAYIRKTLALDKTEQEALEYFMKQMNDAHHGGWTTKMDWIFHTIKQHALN
Sequence of PI3K α (P27986 whole entry partner): as the sequence (P27986 whole entry partner, canonical isoform) above
Method: as §2
as §3, with “dark.” for “dark. HRTF ratio was measured on a microplate reader (BMG Labtech., Germany) at an excitation wavelength of 337 nm and emission wavelengths of 665 and 620 nm with an integration time of 400 μsec.”

[6] = biological target: PI3K β (Homo sapiens (Human), UniProt P42338); test: Assay 1: Fluorescent (HTRF) determination of PI3K enzyme activity, beta; type: biochemical
Sequence of PI3K β (P42338 whole entry): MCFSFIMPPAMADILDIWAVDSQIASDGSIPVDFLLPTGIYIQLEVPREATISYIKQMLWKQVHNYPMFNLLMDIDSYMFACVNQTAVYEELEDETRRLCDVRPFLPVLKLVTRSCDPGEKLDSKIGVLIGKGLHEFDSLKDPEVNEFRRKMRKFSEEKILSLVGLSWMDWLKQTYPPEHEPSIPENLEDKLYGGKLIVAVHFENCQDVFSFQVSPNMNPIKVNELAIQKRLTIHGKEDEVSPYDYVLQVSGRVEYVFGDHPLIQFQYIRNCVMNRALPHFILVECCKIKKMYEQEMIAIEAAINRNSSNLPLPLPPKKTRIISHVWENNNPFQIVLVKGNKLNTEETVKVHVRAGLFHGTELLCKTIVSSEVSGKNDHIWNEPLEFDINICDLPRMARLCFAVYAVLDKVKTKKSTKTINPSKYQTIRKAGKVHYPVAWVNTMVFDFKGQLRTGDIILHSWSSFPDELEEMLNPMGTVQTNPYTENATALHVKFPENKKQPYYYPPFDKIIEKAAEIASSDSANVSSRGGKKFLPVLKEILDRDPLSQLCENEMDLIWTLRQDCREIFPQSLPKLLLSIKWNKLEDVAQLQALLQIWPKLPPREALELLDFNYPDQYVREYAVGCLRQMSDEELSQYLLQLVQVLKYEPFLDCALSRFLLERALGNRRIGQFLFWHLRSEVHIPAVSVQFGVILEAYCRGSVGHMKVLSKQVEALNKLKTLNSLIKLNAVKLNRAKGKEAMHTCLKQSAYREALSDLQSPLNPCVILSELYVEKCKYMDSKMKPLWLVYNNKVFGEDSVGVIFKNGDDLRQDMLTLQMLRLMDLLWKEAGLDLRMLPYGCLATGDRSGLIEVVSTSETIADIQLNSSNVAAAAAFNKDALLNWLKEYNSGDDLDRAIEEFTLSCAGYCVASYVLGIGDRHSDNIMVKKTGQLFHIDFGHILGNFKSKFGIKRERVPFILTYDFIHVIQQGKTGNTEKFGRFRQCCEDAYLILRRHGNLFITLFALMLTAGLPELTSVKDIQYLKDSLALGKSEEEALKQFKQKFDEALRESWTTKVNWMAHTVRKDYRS
Sequence of PI3K β (P27986 whole entry partner): as the sequence (P27986 whole entry partner, canonical isoform) above
Method: as §2
as §3, with “dark.” for “dark. HRTF ratio was measured on a microplate reader (BMG Labtech., Germany) at an excitation wavelength of 337 nm and emission wavelengths of 665 and 620 nm with an integration time of 400 μsec.”

[7] = biological target: PI3K γ (Homo sapiens (Human), UniProt P48736); test: Assay 1: Fluorescent (HTRF) determination of PI3K enzyme activity, gamma; type: biochemical
Sequence of PI3K γ (P48736 whole entry): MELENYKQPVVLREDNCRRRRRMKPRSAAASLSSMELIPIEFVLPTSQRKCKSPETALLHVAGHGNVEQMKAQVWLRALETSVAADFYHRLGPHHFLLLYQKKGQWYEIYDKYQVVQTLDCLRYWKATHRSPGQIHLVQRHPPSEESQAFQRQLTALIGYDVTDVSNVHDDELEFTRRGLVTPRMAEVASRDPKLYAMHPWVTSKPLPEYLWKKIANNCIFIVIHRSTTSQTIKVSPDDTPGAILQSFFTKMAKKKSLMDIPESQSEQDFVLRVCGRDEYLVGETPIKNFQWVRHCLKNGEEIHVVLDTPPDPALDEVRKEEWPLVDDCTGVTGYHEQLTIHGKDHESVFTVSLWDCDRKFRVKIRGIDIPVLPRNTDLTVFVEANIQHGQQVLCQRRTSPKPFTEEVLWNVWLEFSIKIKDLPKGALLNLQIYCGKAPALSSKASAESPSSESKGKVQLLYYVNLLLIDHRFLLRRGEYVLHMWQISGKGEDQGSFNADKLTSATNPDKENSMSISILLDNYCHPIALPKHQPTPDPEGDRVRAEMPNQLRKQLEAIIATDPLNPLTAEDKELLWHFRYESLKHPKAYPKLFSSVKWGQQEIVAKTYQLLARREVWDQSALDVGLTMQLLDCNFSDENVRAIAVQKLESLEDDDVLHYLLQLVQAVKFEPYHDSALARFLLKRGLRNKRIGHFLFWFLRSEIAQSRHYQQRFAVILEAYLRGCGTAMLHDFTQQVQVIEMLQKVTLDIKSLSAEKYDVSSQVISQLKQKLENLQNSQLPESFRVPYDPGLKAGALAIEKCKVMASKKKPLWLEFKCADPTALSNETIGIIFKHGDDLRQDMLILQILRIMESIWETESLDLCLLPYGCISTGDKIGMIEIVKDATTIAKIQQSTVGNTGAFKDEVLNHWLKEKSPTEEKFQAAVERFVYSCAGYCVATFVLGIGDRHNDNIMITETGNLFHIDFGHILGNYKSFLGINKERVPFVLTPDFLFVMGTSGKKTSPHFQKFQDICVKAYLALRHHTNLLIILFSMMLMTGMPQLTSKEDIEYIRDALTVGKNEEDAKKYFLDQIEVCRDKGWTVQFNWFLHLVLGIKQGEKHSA
Method: as §2
as §3, with “dark.” for “dark. HRTF ratio was measured on a microplate reader (BMG Labtech., Germany) at an excitation wavelength of 337 nm and emission wavelengths of 665 and 620 nm with an integration time of 400 μsec.”

[8] = Oral pharmacokinetics in rats; type: in vivo
Method: The protocol for the pharmacokinetics studies in rat is provided below.
All animals were fasted overnight (12 hours) before dosing and continued till 4.0 hours after administration of test item. Test item formulations were prepared in 1% Tween 80 and 99% media (0.5% Methyl cellulose, 4000 cPs, pH 2.2). The blood samples (150 μl from each animal) were collected from the orbital sinus, and placed into a micro centrifuge tube containing disodium EDTA as an anticoagulant. Blood samples were centrifuged immediately with a speed of 1000 g for 10 min at 4° C. and separated plasma samples were frozen at below −80° C. and stored until analysis. The concentrations of test item in all formulation were analyzed by HPLC. The plasma concentrations of test item in all samples were analyzed by LC-MS/MS. Pharmacokinetic parameters viz. Cmax, AUC0-t, Tmax, and t1/2 were estimated by using WinNonlin software.

[9] = Oral pharmacokinetics in dogs; type: in vivo

| SMILES | Metabolic stability in liver microsomes, Mouse (percent parent compound remaining) [1] [%] | Metabolic stability in liver microsomes, Rat (percent parent compound remaining) [2] [%] | Metabolic stability in liver microsomes, Human (percent parent compound remaining) [3] [%] | IC50 ([4]; μM) [µM] | inhibition at 1 µM [5] [%] | inhibition at 1 µM [6] [%] | inhibition at 1 µM [7] [%] | IC50 [4] [µM] | Cmax relative to free base of compound B1 [8] | area under the curve (AUC) relative to free base of compound B1 [8] | Cmax relative to free base of compound B1 [9] | area under the curve (AUC) relative to free base of compound B1 [9] |
| --- | --- | --- | --- | --- | --- | --- | --- | --- | --- | --- | --- | --- |
| CC(C)Oc1ccc(-c2nn([C@H](C)c3oc4ccccc4c(=O)c3-c3cccc(F)c3)c3ncnc(N)c23)cc1F [Compound A2, (R)-2-(1-(4-amino-3-(3-fluoro-4-isopropoxyphenyl)-1H-pyrazolo[3,4-d]pyrimidin-1-yl)ethyl)-3-(3-fluorophenyl)-4H-chromen-4-one] | 34.7 | 44.2 | 11.4 | > 10 | 0.95 | 38.7 | 66.3 |  |  |  |  |  |
| CC(C)Oc1ccc(-c2nn(C(C)c3oc4ccc(F)cc4c(=O)c3-c3cccc(F)c3)c3ncnc(N)c23)cc1F (racemic) [Compound B, 2-(1-(4-amino-3-(3-fluoro-4-isopropoxyphenyl)-1H-pyrazolo[3,4-d]pyrimidin-1-yl)ethyl)-6-fluoro-3-(3-fluorophenyl)-4H-chromen-4-one] | 54.9 | 51.4 | 46.9 |  |  |  |  |  |  |  |  |  |
| CC(C)Oc1ccc(-c2nn(C(C)c3oc4ccccc4c(=O)c3-c3cccc(F)c3)c3ncnc(N)c23)cc1F (racemic) [Compound A, 2-(1-(4-amino-3-(3-fluoro-4-isopropoxyphenyl)-1H-pyrazolo[3,4-d]pyrimidin-1-yl)ethyl)-3-(3-fluorophenyl)-4H-chromen-4-one] | 32.6 | 43.1 | 38.4 |  | 2.63 | 9.95 | 55.9 | 0.0373 |  |  |  |  |
| CC(C)Oc1ccc(-c2nn([C@H](C)c3oc4ccc(F)cc4c(=O)c3-c3cccc(F)c3)c3ncnc(N)c23)cc1F [Compound B2, (R)-2-(1-(4-amino-3-(3-fluoro-4-isopropoxyphenyl)-1H-pyrazolo[3,4-d]pyrimidin-1-yl)ethyl)-6-fluoro-3-(3-fluorophenyl)-4H-chromen-4-one] | 54.1 | 48.6 | 27.5 |  |  |  |  |  |  |  |  |  |
| CC(C)Oc1ccc(-c2nn([C@@H](C)c3oc4ccc(F)cc4c(=O)c3-c3cccc(F)c3)c3ncnc(N)c23)cc1F.Cc1ccc(S(=O)(=O)O)cc1 [PTSA salt of compound B1, (S)-2-(1-(4-amino-3-(3-fluoro-4-isopropoxyphenyl)-1H-pyrazolo[3,4-d]pyrimidin-1-yl)ethyl)-6-fluoro-3-(3-fluorophenyl)-4H-chromen-4-one 4-methylbenzenesulfonate] |  |  |  |  |  |  |  |  | about twice | nearly three times | more than twice | about four times |
